One may read the MIC as the least concentration at which growth counts as inhibited. Usually IC50 stands for the point on the concentration scale where inhibition reaches its midpoint. Read a high IC50 as weaker potency in that assay. By MBC is commonly meant the smallest concentration meeting the test's criterion for killing. A high value points to less potent killing.

In brackets after ≈: the same amount, converted by molar mass. Activity calls are given as the source filed them.

Experiment [1] concerns Micrococcus luteus. Put plainly: Antimicrobial activity against Micrococcus luteus MTCC 2470 incubated for 24 hrs at 37 degC by well diffusion method. The format is functional. The conditions noted are these: MTCC 2470, 24 h.
Experiment [2] deals with Candida albicans. Put plainly: Antimicrobial activity against Candida albicans MTCC 3017 incubated for 24 hrs at 30 degC by well diffusion method. It is filed as functional. Particulars: MTCC 3017, 24 h.
In experiment [3] the test system is Raoultella planticola. Put plainly: Antimicrobial activity against Klebsiella planticola MTCC 530 incubated for 24 hrs at 37 degC by well diffusion method. It is filed as functional. Particulars: MTCC 530, 24 h. A general note: Agar diffusion results depend on both activity and mobility in agar.
The test system of experiment [4] is Staphylococcus aureus. Put plainly: Antimicrobial activity against Staphylococcus aureus MLS16 MTCC 2940 incubated for 24 hrs at 37 degC by well diffusion method. It is filed as functional. The conditions noted are these: MLS16 MTCC 2940, 24 h.
Experiment [5] concerns Escherichia coli. As to the kind of experiment: Antimicrobial activity against Escherichia coli MTCC 739 incubated for 24 hrs at 37 degC by well diffusion method. The format is functional. The conditions noted are these: MTCC 739, 24 h.
The subject of experiment [6] is Bacillus subtilis. Put plainly: Antimicrobial activity against Bacillus subtilis MTCC 121 incubated for 24 hrs at 37 degC by well diffusion method. The format is functional. The conditions noted are these: MTCC 121, 24 h.
In experiment [7] the test system is Pseudomonas aeruginosa. Put plainly: Antimicrobial activity against Pseudomonas aeruginosa MTCC 2453 incubated for 24 hrs at 37 degC by well diffusion method. It is filed as functional. Particulars: MTCC 2453, 24 h.
The subject of experiment [8] is Micrococcus luteus. As to the kind of experiment: Inhibition of bio-film formation of Micrococcus luteus MTCC 2470 incubated for 24 hrs at 37 degC under static conditions by crystal violet staining method. The conditions noted are these: MTCC 2470, 24 h. The format is functional, organism-based.
Experiment [9] deals with Staphylococcus aureus. As to the kind of experiment: Inhibition of bio-film formation of Staphylococcus aureus MLS16 MTCC 2940 incubated for 24 hrs at 37 degC under static conditions by crystal violet staining method. The format is functional, organism-based. The conditions noted are these: MLS16 MTCC 2940, 24 h.
Experiment [10] concerns Escherichia coli. As to the kind of experiment: Inhibition of bio-film formation of Escherichia coli MTCC 739 incubated for 24 hrs at 37 degC under static conditions by crystal violet staining method. The format is functional, organism-based. Particulars: MTCC 739, 24 h.
For experiment [11], the system named is Bacillus subtilis. Put plainly: Inhibition of bio-film formation of Bacillus subtilis MTCC 121 incubated for 24 hrs at 37 degC under static conditions by crystal violet staining method. The format is functional, organism-based. Particulars: MTCC 121, 24 h.
Experiment [12] concerns Staphylococcus aureus. As to the kind of experiment: Induction of intracellular ROS accumulation in Staphylococcus aureus MLS16 MTCC 2940 sessile biofilm cells at 0.5 to 2 um incubated for 24 hrs at 35 degC by DCFH-DA dye based fluorescence assay. The format is functional, organism-based.
The subject of experiment [13] is Raoultella planticola. Put plainly: Inhibition of bio-film formation of Klebsiella planticola MTCC 530 incubated for 24 hrs at 37 degC under static conditions by crystal violet staining method. The conditions noted are these: MTCC 530, 24 h. The format is functional, organism-based.
For experiment [14], the system named is Staphylococcus aureus. Put plainly: Bactericidal activity against Staphylococcus aureus MLS16 MTCC 2940 incubated for 24 hrs at 37 degC. Particulars: MLS16 MTCC 2940, 24 h. It is filed as functional.
In experiment [15] the test system is Escherichia coli. As to the kind of experiment: Bactericidal activity against Escherichia coli MTCC 739 incubated for 24 hrs at 37 degC. It is filed as functional. Particulars: MTCC 739, 24 h.
The test system of experiment [16] is Bacillus subtilis. As to the kind of experiment: Bactericidal activity against Bacillus subtilis MTCC 121 incubated for 24 hrs at 37 degC. It is filed as functional. Particulars: MTCC 121, 24 h.
Experiment [17] has as its system Raoultella planticola. As to the kind of experiment: Bactericidal activity against Klebsiella planticola MTCC 530 incubated for 24 hrs at 37 degC. It is filed as functional. Particulars: MTCC 530, 24 h.
Experiment [18] relates to Micrococcus luteus. As to the kind of experiment: Bactericidal activity against Micrococcus luteus MTCC 2470 incubated for 24 hrs at 37 degC. The format is functional. Particulars: MTCC 2470, 24 h.

For the molecule `O=C(Cc1ccccc1)NCC1=Cc2ccccc2OC1(O)C(F)(F)F` (stereo unspecified), the MIC in experiment [1], in [2], in [3], in experiment [4], in experiment [5] and in experiment [6] was greater than 125 µg/mL each time. The molecule further gave an MIC in experiment [7] greater than 125 µg/mL.
As to `CC[C@H]1OC(=O)[C@H](C)[C@@H](O[C@H]2C[C@@](C)(OC)[C@@H](O)[C@H](C)O2)[C@H](C)[C@@H](O[C@@H]2O[C@H](C)C[C@H](N(C)C)[C@H]2O)[C@](C)(O)C[C@@H](C)C(=O)[C@H](C)[C@@H](O)[C@]1(C)O` [ERYTHROMYCIN], the IC50 in experiment [8] turned out to be 310 nM; in experiment [9] it was 250 nM; in [10] it was 430 nM; in experiment [11], 420 nM; in [13], 350 nM. In addition, in experiment [12], the result was Active.
Take `Clc1ccc(COC(Cn2ccnc2)c2ccc(Cl)cc2Cl)c(Cl)c1` (stereo unspecified) [MICONAZOLE]: the MIC is greater than 125 µg/mL in [1]; 18.7 µM in experiment [2]; greater than 125 µg/mL in experiment [3]; greater than 125 µg/mL in experiment [4]; greater than 125 µg/mL in [5]; greater than 125 µg/mL in experiment [6]. This molecule came in with an MIC in experiment [7] greater than 125 µg/mL.
Turning to `O=C(CCBr)NCC1=Cc2cc(Br)ccc2OC1(O)C(F)(F)F` (stereo unspecified), the MIC in experiment [1], in [2], in experiment [3], in [4], in [5] and in experiment [6] was greater than 125 µg/mL each time. In [7], this molecule displayed an MIC greater than 125 µg/mL.
In the case of `O=C(Cc1ccc(Br)cc1)NCC1=Cc2ccccc2OC1(O)C(F)(F)F` (stereo unspecified), the MBC in [14] was 67.2 µM (≈ 29.7 µg/mL); in [15] it was greater than 230 µM; in experiment [16] it was greater than 230 µM; in [17] it was greater than 230 µM; in [18], 33.6 µM (≈ 14.9 µg/mL). For the same molecule, the IC50 in [8] came out at 17400 nM; in experiment [9], 16800 nM. Moreover, the MIC in experiment [1] is greater than 125 µg/mL; in [2], greater than 125 µg/mL; in experiment [3], 33.6 µM; in experiment [4], greater than 125 µg/mL; in [5], greater than 125 µg/mL; in experiment [6] it was 33.6 µM. Further, the MIC in experiment [7] was greater than 125 µg/mL.
With `O=C(CCCCBr)NCC1=Cc2ccccc2OC1(O)C(F)(F)F` (stereo unspecified), the MIC in [1], in experiment [2], in experiment [3], in experiment [4], in experiment [5] and in [6] was greater than 125 µg/mL in each case. The MIC in experiment [7] is greater than 125 µg/mL.
In the case of `O=C(Cc1ccccc1)NCC1=Cc2cc(Br)ccc2OC1(O)C(F)(F)F` (stereo unspecified), the minimal bactericidal concentration (MBC) in experiment [14] was 67.2 µM (≈ 29.7 µg/mL); in experiment [15], greater than 230 µM; in experiment [16], greater than 230 µM; in experiment [17] it was greater than 230 µM; in [18], 33.6 µM (≈ 14.9 µg/mL). The figures for the IC50 in [8] and in experiment [9] were 19100 nM and 21900 nM, respectively. Further, the minimum inhibitory concentration (MIC) is greater than 125 µg/mL in experiment [1]; greater than 125 µg/mL in experiment [2]; 33.6 µM in experiment [3]; 33.6 µM in experiment [4]; greater than 125 µg/mL in [5]; greater than 125 µg/mL in experiment [6]. In addition, the MIC in experiment [7] was greater than 125 µg/mL.
In the case of `O=C(CCBr)NCC1=Cc2ccccc2OC1(O)C(F)(F)F` (stereo unspecified), the MIC in experiment [1], in experiment [2], in [3], in [4], in [5] and in experiment [6] was greater than 125 µg/mL in each case. Also, the MIC in [7] is greater than 125 µg/mL.
Turning to `CC(=O)NCC1=Cc2cc(Br)ccc2OC1(O)C(F)(F)F` (stereo unspecified), the MIC in [1], in experiment [2], in [3], in experiment [4], in [5] and in [6] was greater than 125 µg/mL each time. In [7], this molecule returned an MIC greater than 125 µg/mL.

The values are drawn from ChEMBL document CHEMBL3596103, “Synthesis of novel amide functionalized 2H-chromene derivatives by Ritter amidation of primary alcohol using HBF4·OEt2 as a mild and versatile reagent and evaluation of their antimicrobial and anti-biofilm activities” (Bioorg Med Chem Lett, 2015).
